{"source": "patent US10968172B2", "about": "“USP30 inhibitors” (Mitobridge, Inc., priority 2017, dated 2021)", "data": [{"target": "USP30 (Homo sapiens (Human), UniProt Q70CQ3)", "sequence (Q70CQ3 whole entry)": "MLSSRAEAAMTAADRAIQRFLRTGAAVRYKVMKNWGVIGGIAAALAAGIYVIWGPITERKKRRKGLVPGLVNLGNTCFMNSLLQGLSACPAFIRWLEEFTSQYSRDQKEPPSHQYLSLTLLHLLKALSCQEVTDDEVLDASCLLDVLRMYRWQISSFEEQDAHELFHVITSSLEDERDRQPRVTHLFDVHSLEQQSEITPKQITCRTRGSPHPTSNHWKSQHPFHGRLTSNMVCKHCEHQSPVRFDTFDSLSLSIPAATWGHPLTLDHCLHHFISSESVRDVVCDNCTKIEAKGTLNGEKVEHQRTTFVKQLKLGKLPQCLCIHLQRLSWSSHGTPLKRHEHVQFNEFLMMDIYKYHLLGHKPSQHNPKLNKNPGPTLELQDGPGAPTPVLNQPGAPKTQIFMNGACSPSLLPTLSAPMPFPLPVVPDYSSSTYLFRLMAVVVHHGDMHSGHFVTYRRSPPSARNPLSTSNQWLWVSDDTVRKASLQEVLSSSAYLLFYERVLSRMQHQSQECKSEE", "assay": "In vitro biochemical assay for USP30 enzyme (Ubiquitin-Rhodamine110 cleavage, fluorescence)", "conditions": "20 nM USP30, 15 min pre-incubation, 100 nM Ub rhodamine substrate, 2 hrs at room temperature", "units": {"IC50": "µM"}, "values": [{"molecule": "COc1ccc(C[C@H](NC(=O)c2cscn2)C(=O)Nc2ccc(S(=O)(=O)NC(C)(C)C)cc2)cc1", "note": "[Compound 19x, (S)-N-(1-((4-(N-(tert-butyl)sulfamoyl)phenyl)amino)-3-(4-methoxyphenyl)-1-oxopropan-2-yl)thiazole-4-carboxamide]", "IC50": "> 10"}, {"molecule": "CC(C)(C)NS(=O)(=O)c1ccc(NC(=O)[C@H](Cc2ccncc2)NC(=O)c2ccc(F)cc2)cc1", "note": "[Compound 19y, (S)-N-(1-((4-(N-(tert-butyl)sulfamoyl)phenyl)amino)-1-oxo-3-(pyridin-4-yl)propan-2-yl)-4-fluorobenzamide]", "IC50": 0.02}, {"molecule": "COc1ccc(C[C@H](NC(=O)c2cocn2)C(=O)Nc2ccc(S(=O)(=O)NC(C)(C)C)cc2)cc1", "note": "[Compound 19z, (S)-N-(1-((4-(N-(tert-butyl)sulfamoyl)phenyl)amino)-3-(4-methoxyphenyl)-1-oxopropan-2-yl)oxazole-4-carboxamide]", "IC50": "> 10"}]}]}
